IC50 data for 9 compounds are collected here from patent US11279678B2 (SHANGHAI ECUST BIOMEDICINE CO., LTD., priority 2017, dated 2022).

Assay type in all cases: cell-based
For assay [1], the system named is Hela cervical cancer cell line. As to the kind of experiment: In vitro proliferation inhibition of Hela cervical cancer cell line (MTT method). The following applies: Hela cervical cancer cell line. How it is done: Evaluation of In Vitro Antitumor Activity of Hela Cervical Cancer Tumor Cell Lines with Compounds (MTT Method)
The cells were cultured in RPMI1640 medium containing 200 mL/L fetal bovine serum so that the cells were kept at logarithmic growth. The cells were inoculated to 96-well plate, with a density of 4˜8×10^4/ml, 37° C., and pre-cultured for 24 hours with added drugs. The drugs were set at 6 concentrations, each has 3 holes. After 48 hours of consequent effect, the nutrient solution was then removed and the cells were left for air-drying. Each hole was then added with cold 500 g/L trichloroacetic acid (TCA) 50 μL (final concentration of 100 g/L). After setting for 60 minutes, it was then rinsed for 4-5 times with ionized water and dried. Each hole then was added with 4 g/L SRB 100 μL left for 30 mins. Then it was rinsed with 10 mL/L acetic acid for 4 times, dried. Then 10 mmol Tris-base 200 μL per hole was added, then shaked and mixed, subsequently, oscillating on the plate oscillator for 5 min. The enzyme-linked immunoassay was used to determine the A value. To calibrate, a blank control was used, with a wavelength of 490 nm. Tumor inhibition rate (%)=(Average A value of the control cell hole−Average A value of the drugged hole A)/Average A value of the control cell hole×100%. The positive control cell holes were CA4, CB1, and CB1N. To calculate the IC50 value, the Logit method was used according to the cell growth inhibition rate of different concentrations of the drug.

Assay [2] deals with human lung cancer cell A549. Briefly: In vitro antitumor activity on tumor cell lines (CCK-8 method), A549. The following applies: A549, 72 hours. As to the method:
(§1) Evaluation of In Vitro Antitumor Activity of Compounds on Multiple Tumor Cell Lines (CCK-8 Method)
(§2) Take the living cells with more than 90% cells for testing. The cell proliferation inhibition test was performed using the EnoGeneCell™ Counting Kit-8 (CK-8) cell viability test kit. The cell was digested, counted and prepared into a cell suspension with a concentration of 1×10^5/mL. 100 μL cell suspension (1×10^4 cells per hole) was added to each hole in the 96-well plate. The 96-well plate was cultured in a 37° C., 5% CO2 incubator for 24 hours. With every hole added with 100 μL respective drugged cultured medium, control groups were set up, including negative control group, solvent control group, and positive control group. Each group has 5 holes. The 96-well plates were cultured at 37° C., in 5% CO2 incubator for 72 hours. Afterward, 10 μL CCK-8 solution was added to each hole, and the culture plate was incubated in the incubator for 4 hours, and the OD value at 450 nm was determined by enzyme labeling instrument. The inhibition rate and IC50 value of these compounds on tumor cells such as human gastric cancer cell MGC-803, human liver cancer cell HepG2, human lung cancer cell A549 and human breast cancer cell MDA-MB-231 were calculated.
(In general: Tetrazolium assays rely on reduction of a dye to a coloured formazan, in cell work by metabolically active cells.)

The subject of assay [3] is human breast cancer cell MDA-MB-231. Briefly: In vitro antitumor activity on tumor cell lines (CCK-8 method), MDA-MB-231. The following applies: MDA-MB-231, 72 hours. As to the method:
as §1, §2

Assay [4] relates to human liver cancer cell HepG2. As to the kind of experiment: In vitro antitumor activity on tumor cell lines (CCK-8 method), HepG2. The following applies: HepG2, 72 hours. How it is done: as §1, §2
The test system of assay [5] is human gastric cancer cell MGC-803. As to the kind of experiment: In vitro antitumor activity on tumor cell lines (CCK-8 method), MGC-803. The settings on record: MGC-803, 72 hours. As to the method:
as §1, §2

The mark [6] stands for this setting: Homo sapiens, 48 hours drug exposure, read-out: IC50.

Where two headings read alike, the source gives them in different places. Some results are limits rather than exact numbers.

Consider `COc1ccc(/C=C\c2cc(OC)c(OC)c(OC)c2)cc1OC(=O)CCCn1cc(F)c(=O)[nH]c1=O` [Compound Im, (Z)-2-methoxy-5-(3,4,5-trimethoxystyryl)-phenyl-4-(5-fluoro-2,4-dioxo-3,4-dihydropyrimidin-1(2H)-yl)butanoate], for which the IC50 in assay [1] (setting [6]) worked out at 0.03 µM.
`O=c1[nH]cc(F)c(=O)[nH]1` [Compound 5-FU, 5-fluorouracil, reference compound]: the IC50 came to 0.113 µM in assay [1] (setting [6]); 0.113 µM in assay [1] (Homo sapiens, read-out: IC50 values, Hela proliferation inhibition); 34.9 µM in assay [2] (Homo sapiens); 97 µM in assay [3] (Homo sapiens); 0.004 µM in assay [4] (Homo sapiens); 62.5 µM in assay [5] (Homo sapiens).
As for `COc1ccc(CCc2cc(OC)c(OC)c(OC)c2)cc1NC(=O)CCn1cc(F)c(=O)[nH]c1=O` [Compound Id, 3-(5-fluoro-2,4-dioxo-3,4-dihydropyrimidin-1(2H)-yl) N-(5-(3,4,5-trimethoxyphenethyl)-2-methoxyphenyl)-propanamide], the IC50 stood at 0.0298 µM in assay [1] (48 hours drug exposure, read-out: IC50); 38 µM in assay [2]; 70.2 µM in assay [3]; 110 µM in assay [4]; 50.6 µM in assay [5].
With `COc1ccc(/C=C\c2cc(OC)c(OC)c(OC)c2)cc1NC(=O)Cn1cc(F)c(=O)[nH]c1=O` [Compound Ia, (Z)-2-(5-fluoro-2,4-dioxo-3,4-dihydropyrimidin-1(2H)-yl)-N-(2-methoxy-5-(3,4,5-trimethoxystyryl)-phenyl)acetamide], the IC50 came to 0.046 µM in assay [1] (setting [6]); 27.5 µM in assay [2] (Homo sapiens); 112 µM in assay [3] (Homo sapiens); 0.0124 µM in assay [4] (Homo sapiens); 64.2 µM in assay [5] (Homo sapiens).
In the case of `COc1ccc(CCc2cc(OC)c(OC)c(OC)c2)cc1NC(=O)CCCn1cc(F)c(=O)[nH]c1=O` [Compound If, 4-(5-fluoro-2,4-dioxo-3,4-dihydropyrimidin-1(2H)-yl)-N-(5-(3,4,5-trimethoxyphenethyl)-2-methoxyphenyl)-butanamide], the IC50 in assay [1] (setting [6]) was determined as 0.0288 µM.
Consider `COc1ccc(C=Cc2cc(OC)c(OC)c(OC)c2)cc1NC(=O)CCCn1cc(F)c(=O)[nH]c1=O` [Compound Ie, 4-(5-fluoro-2,4-dioxo-3,4-dihydropyrimidin-1(2H)-yl)-N-(5-(3,4,5-trimethoxystyryl)-2-methoxyphenyl)-butanamide], for which, in assay [1] (setting [6]), the IC50 amounted to 0.0688 µM.
For `CCOc1ccc(CCc2cc(OC)c(OC)c(OC)c2)cc1OC(=O)CCn1cc(F)c(=O)[nH]c1=O` [Compound Io, 5-(3,4,5-trimethoxyphenethyl)-2-ethoxyphenyl-3-(5-fluoro-2,4-dioxo-3,4-dihydropyrimidin-1(2H)-yl)propanoate], the IC50 is 0.0343 µM in assay [1] (setting [6]); 0.0003 µM in assay [2] (Homo sapiens); 2.57 µM in assay [3] (Homo sapiens); 0.0017 µM in assay [4] (Homo sapiens); 0.609 µM in assay [5] (Homo sapiens).
In the case of `CCOc1ccc(CCc2cc(OC)c(OC)c(OC)c2)cc1NC(=O)Cn1cc(F)c(=O)[nH]c1=O` [Compound Ig, N-(5-(3,4,5-trimethoxyphenethyl)-2-ethoxyphenyl)-2-(5-fluoro-2,4-dioxo-3,4-dihydropyrimidin-1(2H)-yl)acetamide], the IC50 came out at 0.0471 µM in assay [1] (setting [6]); 59.9 µM in assay [2] (Homo sapiens); 60.2 µM in assay [3] (Homo sapiens); 39.4 µM in assay [4] (Homo sapiens); 25.8 µM in assay [5] (Homo sapiens).
For `CCOc1ccc(CCc2cc(OC)c(OC)c(OC)c2)cc1NC(=O)CCn1cc(F)c(=O)[nH]c1=O` [Compound Ih, N-(5-(3,4,5-trimethoxyphenethyl)-2-ethoxyphenyl)-3-(5-fluoro-2,4-dioxo-3,4-dihydropyrimidin-1(2H)-yl)propanamide], in that order: greater than 0.37 µM, 15.2 µM, 60.6 µM, 171 µM and 23.2 µM.
